In PubChem BioAssay (NCI) one finds TGI data, which are given here for 12 compounds.

Among the test systems are MCF7 breast; HL-60(TB) leukemia; PC-3 prostate; A549 NSCLC; SF-295 CNS; SN12C renal; SK-MEL-28 melanoma; MDA-MB-435; SNB-19 CNS; NCI-H522 lung; SW-620 colon; SK-OV-3 ovarian; SR leukemia; A498 renal; BT-549 breast; ACHN renal; MDA-N.
Common to all, as to experiment: inhibition of tumour cell growth, NCI panel, 48 h

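Tested at 5 concentrations; 48 h exposure; 96-well plates; endpoints linearly interpolated, else capped at highest concentration. TGI denotes the concentration required for complete inhibition of growth.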 Where a SMILES comes first, the peptide text is derived from it. [ ]: non-standard residue; d: D form. The star is where a group is joined. NMeV = CN[C@H](C(=O)O)C(C)C; X29 = COc1ccc(CN*)c(OC)c1; Octanoyl = CCCCCCCC(=O)*; dNMeA = CN[C@H](C)C(=O)O

Turning to `CCCCCCCC(=O)N[C@H](C(=O)N[C@H](C(=O)N(C)[C@H](C(=O)N1CCC[C@H]1C(=O)N(C)[C@H](C)C(=O)NCc1ccc(OC)cc1OC)C(C)C)C(C)C)C(C)C` (Octanoyl-VV[NMeV]P[dNMeA]-X29), the TGI in the experiment with MCF7 breast is 42.8 µM; in the experiment with HL-60(TB) leukemia, 11.3 µM; in the experiment on PC-3 prostate it was 58.7 µM; with A549 NSCLC, 99 µM; in the experiment with SF-295 CNS, > 88.7 µM; with SN12C renal, > 100 µM. Besides, the TGI was > 68.2 µM in the experiment on SK-MEL-28 melanoma; 28.9 µM with MDA-MB-435; > 100 µM in the experiment with SNB-19 CNS; 31.4 µM in the experiment on NCI-H522 lung; > 100 µM with SW-620 colon; > 100 µM with SK-OV-3 ovarian. In addition, the TGI in the experiment on SR leukemia was > 65.6 µM; in the experiment with A498 renal, 12.2 µM; in the experiment with BT-549 breast it was > 61.2 µM; with ACHN renal, 42.4 µM.

As to `O=C(O)c1ccc(C2COc3ccc(Cl)cc3C2)cc1` (stereo unspecified), the TGI in the experiment on HL-60(TB) leukemia, in the experiment with A549 NSCLC, in the experiment on SF-295 CNS, in the experiment with SN12C renal, in the experiment with SK-MEL-28 melanoma and in the experiment with SNB-19 CNS was > 100 µM throughout. The TGI in the experiment on NCI-H522 lung, with SW-620 colon, in the experiment with SK-OV-3 ovarian, in the experiment on SR leukemia, with A498 renal and in the experiment with ACHN renal was > 100 µM throughout.

As to `COc1ccc2c(c1)C(=O)C1CC(=O)CCC21` (stereo unspecified), the TGI in the experiment on HL-60(TB) leukemia, in the experiment with A549 NSCLC, in the experiment on SF-295 CNS, in the experiment on SN12C renal, in the experiment with SK-MEL-28 melanoma and in the experiment on SNB-19 CNS was > 100 µM throughout. The TGI with NCI-H522 lung, in the experiment on SW-620 colon, with SK-OV-3 ovarian, in the experiment with SR leukemia, in the experiment with A498 renal and in the experiment with ACHN renal was > 100 µM throughout.

`CCN1CCC(C)OP1(=O)Cc1ccccc1` (stereo unspecified): the TGI with MCF7 breast, in the experiment on PC-3 prostate, in the experiment with A549 NSCLC, in the experiment with SF-295 CNS, in the experiment with MDA-MB-435 and in the experiment on SNB-19 CNS was > 100 µM in each case. For the same compound, the TGI with SW-620 colon, in the experiment on SK-OV-3 ovarian, with SR leukemia, in the experiment with BT-549 breast and in the experiment on ACHN renal was > 100 µM in each case.

As to `CC(=O)NC(CCCNC(=O)N(CCCl)N=O)C(=O)NCc1ccccc1` (stereo unspecified), the TGI in the experiment with HL-60(TB) leukemia, in the experiment on A549 NSCLC, in the experiment on SF-295 CNS, with SN12C renal, with SK-MEL-28 melanoma and with SNB-19 CNS was > 100 µM in each case. The TGI with NCI-H522 lung, in the experiment with SW-620 colon, with SR leukemia and in the experiment on ACHN renal was > 100 µM each time.

As to `C/C=C1\CN2CCc3c([nH]c4ccccc34)C2CC1C(=O)OC` (stereo unspecified), the TGI with HL-60(TB) leukemia is > 32.2 µM; with A549 NSCLC it was > 322 µM; in the experiment on SF-295 CNS, > 322 µM; with SN12C renal, > 322 µM; with SK-MEL-28 melanoma it was > 322 µM; in the experiment with SNB-19 CNS, > 322 µM. Further, the TGI with NCI-H522 lung, in the experiment on SW-620 colon, with SK-OV-3 ovarian, with SR leukemia and in the experiment on ACHN renal was > 322 µM each time.

Regarding `CCCCCCCOc1ccc(/C=C\c2cc[n+](CCCCCCCC[n+]3ccc(/C=C\c4ccc(OCCCCCCC)cc4)cc3)cc2)cc1`, the TGI is > 100 µM in the experiment on HL-60(TB) leukemia; 41.5 µM in the experiment on A549 NSCLC; > 100 µM with SF-295 CNS; 57 µM in the experiment on SN12C renal; 32.2 µM in the experiment with SK-MEL-28 melanoma; > 100 µM in the experiment on SNB-19 CNS. Besides, the TGI in the experiment with NCI-H522 lung was 10.7 µM; with SK-OV-3 ovarian, 57.8 µM; with A498 renal, 80.8 µM; with ACHN renal, > 100 µM.

On to `CC(=O)CN(Cc1cc(C)c2c(c1)c1ccccc1n2Cc1ccccc1)S(=O)(=O)c1ccc(C)cc1`, for which the TGI with HL-60(TB) leukemia, in the experiment with A549 NSCLC, in the experiment with SF-295 CNS, in the experiment with SK-MEL-28 melanoma, with SNB-19 CNS and with NCI-H522 lung was > 100 µM each time. Also, the TGI in the experiment on SW-620 colon, in the experiment on SK-OV-3 ovarian and in the experiment with SR leukemia was > 100 µM each time.

Take `CS(=O)(=O)c1ccc(-c2cc(-c3ccc(S(C)(=O)=O)cc3)[n+](-c3cc(-c4ccc(S(C)(=O)=O)cc4)c([O-])c(-c4ccc(S(C)(=O)=O)cc4)c3)c(-c3ccc(S(C)(=O)=O)cc3)c2)cc1`: the TGI in the experiment on A549 NSCLC, in the experiment with SF-295 CNS, in the experiment with SN12C renal, in the experiment with SK-MEL-28 melanoma, with SNB-19 CNS and in the experiment with NCI-H522 lung was > 100 µM throughout. For the same compound, the TGI in the experiment with SW-620 colon, in the experiment with SR leukemia and in the experiment with ACHN renal was > 100 µM each time.

`COC(=O)c1onc(-c2c(OC)cc(OC)cc2OC)c1C(=O)OC`: the TGI in the experiment with HL-60(TB) leukemia, in the experiment on A549 NSCLC, with SF-295 CNS, in the experiment on SK-MEL-28 melanoma, in the experiment on SNB-19 CNS and in the experiment on NCI-H522 lung was > 100 µM in each case. Also, the TGI in the experiment on SW-620 colon, with SK-OV-3 ovarian, in the experiment on SR leukemia and in the experiment with ACHN renal was > 100 µM throughout.

For the compound `c1ccc2c(c1)C1CCCCCC21N1CCOCC1` (stereo unspecified), the TGI with HL-60(TB) leukemia, in the experiment with A549 NSCLC, in the experiment with SF-295 CNS, with SN12C renal, in the experiment on SK-MEL-28 melanoma and in the experiment on SNB-19 CNS was > 100 µM in each case. Further, the TGI in the experiment on NCI-H522 lung, in the experiment with SW-620 colon, with SK-OV-3 ovarian, in the experiment on A498 renal and in the experiment on ACHN renal was > 100 µM in each case.

In the case of `C=C(Br)CNC(=O)Nc1ccc(Cl)c(Cl)c1`, the TGI is 38.3 µM in the experiment with HL-60(TB) leukemia; 48 µM in the experiment on PC-3 prostate; 66 µM in the experiment on A549 NSCLC; 67.2 µM with SF-295 CNS; 82.7 µM in the experiment with SN12C renal; > 100 µM in the experiment with SK-MEL-28 melanoma. Moreover, the TGI was 53.2 µM with MDA-MB-435; 73.5 µM in the experiment on SNB-19 CNS; 57.4 µM with NCI-H522 lung; > 100 µM with SW-620 colon; 77 µM in the experiment on SK-OV-3 ovarian; 62.9 µM in the experiment on SR leukemia. Also, the TGI is 27.3 µM in the experiment with A498 renal, > 100 µM in the experiment with MDA-N and 55 µM in the experiment with ACHN renal.
